For data set [1] the following is noted: 298.15 K; for surface tension liquid-gas: Pendant drop shape; for mass density: 101.33 kPa, Liquid.
Data set [2] in a line: xn = mol fraction of the nth substance listed. Particulars: 298.15 K, Pendant drop shape.

Numbers after ± are expanded uncertainties.

With `CCC(C)=O` [butanone], in data set [1], the surface tension liquid-gas was determined as 24.28 ± 0.27 mN/m and the mass density stood at 799.62 ± 0.57 kg/m3.
Turning to `Cc1cccc(C)c1` [1,3-dimethylbenzene] + CC(C)=O, the surface tension liquid-gas turned out to be 28.16 ± 0.3 mN/m in data set [2] (x2 = 0.1027); 27.95 ± 0.3 mN/m in data set [2] (x2 = 0.1996); 27.67 ± 0.29 mN/m in data set [2] (x2 = 0.3049); 27.31 ± 0.29 mN/m in data set [2] (x2 = 0.4029); 26.91 ± 0.29 mN/m in data set [2] (x2 = 0.4993); 26.41 ± 0.28 mN/m in data set [2] (x2 = 0.6024). Further, the surface tension liquid-gas in data set [2] (x2 = 0.7002) turned out to be 25.86 ± 0.28 mN/m; in data set [2] (x2 = 0.801), 25.27 ± 0.27 mN/m; in data set [2] (x2 = 0.9014), 24.66 ± 0.27 mN/m.
For `Cc1cccc(C)c1` [1,3-dimethylbenzene], in data set [1], the surface tension liquid-gas was 28.36 ± 0.3 mN/m and the mass density stood at 859.78 ± 0.49 kg/m3.
As to `Cc1cccc(C)c1` [1,3-dimethylbenzene] + CCC(C)=O, the surface tension liquid-gas amounted to 27.99 ± 0.3 mN/m in data set [2] (x2 = 0.1044); 27.66 ± 0.3 mN/m in data set [2] (x2 = 0.2015); 27.29 ± 0.29 mN/m in data set [2] (x2 = 0.3028); 26.93 ± 0.29 mN/m in data set [2] (x2 = 0.4011); 26.53 ± 0.28 mN/m in data set [2] (x2 = 0.5013); 26.11 ± 0.28 mN/m in data set [2] (x2 = 0.6009). Further, the surface tension liquid-gas in data set [2] (x2 = 0.6999) was 25.68 ± 0.28 mN/m; in data set [2] (x2 = 0.7999), 25.24 ± 0.27 mN/m; in data set [2] (x2 = 0.9), 24.76 ± 0.27 mN/m.
With `Cc1ccccc1C` [1,2-dimethylbenzene] + CC(C)=O, the surface tension liquid-gas in data set [2] (x2 = 0.0995) came out at 29.13 ± 0.3 mN/m; in data set [2] (x2 = 0.2016), 28.84 ± 0.3 mN/m; in data set [2] (x2 = 0.3047), 28.45 ± 0.3 mN/m; in data set [2] (x2 = 0.403), 28.07 ± 0.29 mN/m; in data set [2] (x2 = 0.4999), 27.58 ± 0.29 mN/m; in data set [2] (x2 = 0.6017), 26.99 ± 0.29 mN/m. Also, the surface tension liquid-gas in data set [2] (x2 = 0.6991) was 26.34 ± 0.28 mN/m; in data set [2] (x2 = 0.7998), 25.65 ± 0.28 mN/m; in data set [2] (x2 = 0.9002) it was 24.86 ± 0.27 mN/m.
Take `Cc1ccc(C)cc1` [1,4-dimethylbenzene] + CC(C)=O: the surface tension liquid-gas came out at 27.69 ± 0.29 mN/m in data set [2] (x2 = 0.1027); 27.41 ± 0.29 mN/m in data set [2] (x2 = 0.2022); 27.11 ± 0.29 mN/m in data set [2] (x2 = 0.3029); 26.78 ± 0.28 mN/m in data set [2] (x2 = 0.3993); 26.41 ± 0.28 mN/m in data set [2] (x2 = 0.5009); 25.98 ± 0.28 mN/m in data set [2] (x2 = 0.6006). Also, the surface tension liquid-gas in data set [2] (x2 = 0.7005) is 25.51 ± 0.28 mN/m; in data set [2] (x2 = 0.8002), 25.03 ± 0.27 mN/m; in data set [2] (x2 = 0.9007), 24.51 ± 0.27 mN/m.
Turning to `CC(C)=O` [acetone], in data set [1], the surface tension liquid-gas is listed as 24.01 ± 0.26 mN/m and the mass density was 784.39 ± 0.61 kg/m3.
With `CCC(C)=O` [butanone] + Cc1ccccc1C, the surface tension liquid-gas was found to be 29 ± 0.3 mN/m in data set [2] (x1 = 0.1001); 28.58 ± 0.3 mN/m in data set [2] (x1 = 0.2028); 28.17 ± 0.3 mN/m in data set [2] (x1 = 0.3001); 27.68 ± 0.29 mN/m in data set [2] (x1 = 0.4017); 27.19 ± 0.29 mN/m in data set [2] (x1 = 0.5006); 26.65 ± 0.28 mN/m in data set [2] (x1 = 0.6018). In addition, the figures for the surface tension liquid-gas in data set [2] (x1 = 0.7012), in data set [2] (x1 = 0.8006) and in data set [2] (x1 = 0.8994) were 26.11 ± 0.28 mN/m, 25.55 ± 0.28 mN/m and 24.96 ± 0.27 mN/m, respectively.
Regarding `Cc1ccccc1C` [1,2-dimethylbenzene], in data set [1], the surface tension liquid-gas amounted to 29.35 ± 0.3 mN/m and the mass density was 875.92 ± 0.42 kg/m3.
As to `CCC(C)=O` [butanone] + Cc1ccc(C)cc1, the surface tension liquid-gas in data set [2] (x1 = 0.0999) came to 27.58 ± 0.29 mN/m; in data set [2] (x1 = 0.2007), 27.27 ± 0.29 mN/m; in data set [2] (x1 = 0.3001), 26.95 ± 0.29 mN/m; in data set [2] (x1 = 0.402) it was 26.62 ± 0.28 mN/m; in data set [2] (x1 = 0.5001) it was 26.28 ± 0.28 mN/m; in data set [2] (x1 = 0.6006), 25.91 ± 0.28 mN/m. Moreover, the surface tension liquid-gas is 25.51 ± 0.28 mN/m in data set [2] (x1 = 0.7009), 25.12 ± 0.27 mN/m in data set [2] (x1 = 0.8009) and 24.71 ± 0.27 mN/m in data set [2] (x1 = 0.8999).
On to `Cc1ccc(C)cc1` [1,4-dimethylbenzene], for which, in data set [1], the surface tension liquid-gas came to 27.89 ± 0.29 mN/m and the mass density stood at 856.85 ± 0.46 kg/m3.

What is called surface tension liquid-gas is the work needed to enlarge the surface of a liquid by unit area. What is called mass density is mass per unit of volume.

The record behind these values is the NIST ThermoML archive (doi:10.1021/je0341763).
